Assay results: patent US4707481A, “Pyridazinones, their preparation and use, and bronchospasmolytic medicaments containing pyridazinones” (BYK Gulden Lomberg Chemische Fabrik GmbH, priority 1983, dated 1987)
Like-named read-outs stand apart in the source and are kept apart here.

Tests used:
[1] = system: chain of tracheal rings of guinea pigs; assay: relaxing action on chain of tracheal rings in vitro (bronchospasmolytic action); set-up: species or system guinea pig; details: for EC50: Cavia porcellus, Column A, negative logarithm of EC50 in mol/l, 50% of maximum relaxation by (-)isoprenaline, read-out: -lg[EC50] trachea (converted); for [EC40 pot.] left atrium / [EC50] trachea: Column C, measure of organ-selective activity; for [EC50] theophylline / [EC50] substance: Column D, trachea
[2] = system: electrically stimulated left atrium of rats; assay: positive inotropic action on electrically stimulated left atrium in vitro; set-up: species or system rat; details: for [EC40 pot.] theophylline / [EC40 pot.] substance: Column E, left atrium; for EC40: Rattus norvegicus, Column B, negative logarithm of EC40pot in mol/l, 40% increase in contraction force, read-out: -lg[EC40 pot.] left atrium (converted)
Experimental: The positive inotropic action was tested in vitro on the electrically stimulated left atrium of rats (l.a.).
The positive inotropic action of the compounds was tested in vitro on the electrically stimulated left atrium of rats.
Isometric contractions (HSE force sensor K-30; Watanabe recorder, Linear Corder Mark 5) of isolated, left atria from rats (.male., 250-300 g) in an organ bath (10 ml, Tyrode nutrient solution, 31° C., gassing with carbogen, initial tension of the organs 0.25 g) under electrical stimulation (HSE stimulator, 7 V, 3 ms, 2 Hz) were recorded. […] The particular increase in the contraction force is expressed in % of the starting value before administration of the substance. The concentration of the test substance which potentiates the contraction force of the atrium by 40% compared with the starting value [EC40pot. mol/l], expressed by the negative logarithm of the [EC40pot mol/l]: -lg[EC40pot ] serves as a measure of the cardiotonic activity.

[3] = toxicity studies, mouse p.o.; details: in vivo, po; for tolerated dose: mouse, 10080 min; for LD50 at 168 h: Column F, mouse p.o., 7 days observation, read-out: Approximate LD50
Experimental: The toxicity studies are carried out on female NMRI mice (body weight 23-30 g). The animals (5 animals per dose) receive food and water ad libitum. Various doses of the substances are administered once as a suspension in methocel via a gavage. The period of observation lasts 7 days. The tolerated dose (TD), that is to say the highest dose at which as yet none of the animals die, is determined by observation. The average lethal dose (LD50), that is to say the dose at which 50% of the animals die, is determined from the dose/action curve by means of linear regression.

[4] = system: histamine-induced bronchospasm; assay: inhibition of histamine-induced bronchospasm in anesthetized guinea pigs; format: in vivo, guinea pig
Experimental: A method for simultaneously recording pharmacodynamic and toxic effects on internal sensitive receptors, on the respiration and the cardiovascular system of guinea pigs was used [U. Kilian, E. Muller, E. Ch. […] To characterize the bronchospasm induced by histamine (0.09-0.18 μmol /kg i.v.), the maximum flow rate of the respiratory air during inspiration (Vmaxi) and expiration (Vmaxe) and the breath volume (BVi) were measured. A histamine spasm before administration of the substance was compared with several histamine spasms after administration of the substance. The test substances were administered intravenously (i.v.) and/or intrajejunally (i.j.). 5 to 10 animals were used per measurement, and the arithmetic mean was calculated from the results.

[5] = system: acetylcholine-induced bronchospasm; assay: protective effect against acetylcholine-induced bronchospasm in conscious guinea pigs; format: in vivo, guinea pig; details: 100 μmol/kg p.o.; for Tripling of the latency period: figure in parentheses
Experimental: The figure in parentheses indicates the number out of 10 animals in which the latency period more than tripled.
The latency period is to be understood to be the time from the start of acetylcholine-atomization until clear signs of asthma appeared.
The time from the start of atomization to the onset of clear respiratory exertion (in certain circumstances, hypoxic convulsion in the lateral position) is measured, and is denoted the latency period.
The test substance is administered orally by gavage (standard dose 100 μmol/kg, volume 1 ml of 4% strength methocel suspension in 0.9% strength sodium chloride solution/kg). […] Prolongation of the latency period to at least twice its length is regarded as a protective effect.

[6] = system: guinea pig hearts isolated and perfused by the Langendorff method; assay: left-ventricular pressure and heart rate in isolated perfused Langendorff hearts; details: for Emax: Cavia porcellus
Source text: After the animals have been sacrificed by a blow to the neck and exsanguination through the carotid arteries, the thoracic cavity is opened, and the aorta is exposed and looped up with a thread. A cannula, which is attached by tubing to the apparatus from which the nutrient solution slowly drops, is introduced in the direction of the heart and the heart is, quickly after removal from the thorax, connected to the perfusion apparatus. A balloon probe, connected to a Statham pressure sensor, is advanced through a cut through the left atrium into the left ventricle, and is provided with an initial pressure of 40 mm Hg. […] The nutrient solution flowing freely from the coronary sinus into the right atrium is measured with a flow […]) and, together with the change in the left-ventricular pressure and the heart rate determined from this, is recorded on a Watanabe recorder. The substances are administered in a volume of 0.1 ml of nutrient solution, in the dosage indicated in Tab.

[7] = system: right ventricle of guinea pigs; assay: heart function dP/dtmax, right ventricle of anesthetized guinea pigs; format: in vivo, guinea pig
Experimental: The effect of the substances on the contractility of the heart of guinea pigs is tested on animals (.male., 400 to 1000 g) under urethane anesthesia. The change in pressure in the right ventricle of the heart is measured with a tip catheter introduced through the right jugular vein and the maximum rate of pressure rise (dP/dtmax) is determined from this. The heart rate is derived from the pressure waves. […] The test substances were administered intravenously. 5-7 animals were used for each measurement, and the arithmetic mean was calculated from the results.

CCCCOc1ccc(-c2ccc(=O)[nH]n2)cc1OC [Serial No. 3, 6-(4-n-butoxy-3-methoxyphenyl)-3[2H]pyridazinone]
EC50 [1]: 2.51 µM | [EC40 pot.] left atrium / [EC50] trachea [1]: 2.6 | [EC50] theophylline / [EC50] substance [1]: 53.8 | [EC40 pot.] theophylline / [EC40 pot.] substance [2]: 63.2 | EC40 [2]: 6.61 µM | tolerated dose [3]: > 761

COc1cc(-c2ccc(=O)[nH]n2)ccc1OCCC(C)C [Serial No. 6, 6-[3-methoxy-4-(3-methylbutoxy)-phenyl]-3[2H]pyridazinone]
EC50 [1]: 0.708 µM | [EC40 pot.] left atrium / [EC50] trachea [1]: 219 | [EC50] theophylline / [EC50] substance [1]: 190 | [EC40 pot.] theophylline / [EC40 pot.] substance [2]: 4.6 | EC40 [2]: 91.2 µM | tolerated dose [3]: > 800

Cn1c(=O)c2[nH]cnc2n(C)c1=O [Theophylline, theophylline, reference compound]
EC40 [2]: 417 µM | inhibition of histamine-induced bronchospasm, TVi ([4]; 20 μmol/kg i.v., 2 min): 45% | inhibition of histamine-induced bronchospasm, Vmaxe ([4]; 20 μmol/kg i.v., 2 min): 51% | inhibition of histamine-induced bronchospasm, Vmaxi ([4]; 20 μmol/kg i.v., 2 min): 49% | inhibition of histamine-induced bronchospasm, TVi ([4]; 20 μmol/kg i.v., 10 min): 5% | inhibition of histamine-induced bronchospasm, Vmaxe ([4]; 20 μmol/kg i.v., 10 min): 10% | inhibition of histamine-induced bronchospasm, Vmaxi ([4]; 20 μmol/kg i.v., 10 min): 11% | inhibition of histamine-induced bronchospasm, TVi ([4]; 20 μmol/kg i.v., 20 min): 5% | inhibition of histamine-induced bronchospasm, Vmaxe ([4]; 20 μmol/kg i.v., 20 min): 9% | inhibition of histamine-induced bronchospasm, Vmaxi ([4]; 20 μmol/kg i.v., 20 min): 8% | inhibition of histamine-induced bronchospasm, TVi ([4]; 20 μmol/kg i.v., 30 min): 10% | inhibition of histamine-induced bronchospasm, Vmaxe ([4]; 20 μmol/kg i.v., 30 min): 13% | inhibition of histamine-induced bronchospasm, Vmaxi ([4]; 20 μmol/kg i.v., 30 min): 8% | inhibition of histamine-induced bronchospasm, TVi ([4]; 60 μmol/kg i.j., 2 min): 7% | inhibition of histamine-induced bronchospasm, Vmaxe ([4]; 60 μmol/kg i.j., 2 min): 8% | inhibition of histamine-induced bronchospasm, Vmaxi ([4]; 60 μmol/kg i.j., 2 min): 6% | inhibition of histamine-induced bronchospasm, TVi ([4]; 60 μmol/kg i.j., 10 min): 35% | inhibition of histamine-induced bronchospasm, Vmaxe ([4]; 60 μmol/kg i.j., 10 min): 33% | inhibition of histamine-induced bronchospasm, Vmaxi ([4]; 60 μmol/kg i.j., 10 min): 42% | inhibition of histamine-induced bronchospasm, TVi ([4]; 60 μmol/kg i.j., 20 min): 41% | inhibition of histamine-induced bronchospasm, Vmaxe ([4]; 60 μmol/kg i.j., 20 min): 41% | inhibition of histamine-induced bronchospasm, Vmaxi ([4]; 60 μmol/kg i.j., 20 min): 46% | inhibition of histamine-induced bronchospasm, TVi ([4]; 60 μmol/kg i.j., 30 min): 37% | inhibition of histamine-induced bronchospasm, Vmaxe ([4]; 60 μmol/kg i.j., 30 min): 40% | inhibition of histamine-induced bronchospasm, Vmaxi ([4]; 60 μmol/kg i.j., 30 min): 45% | inhibition of histamine-induced bronchospasm, TVi ([4]; 60 μmol/kg i.j., 45 min): 33% | inhibition of histamine-induced bronchospasm, Vmaxe ([4]; 60 μmol/kg i.j., 45 min): 33% | inhibition of histamine-induced bronchospasm, Vmaxi ([4]; 60 μmol/kg i.j., 45 min): 39% | inhibition of histamine-induced bronchospasm, TVi ([4]; 60 μmol/kg i.j., 60 min): 37% | inhibition of histamine-induced bronchospasm, Vmaxe ([4]; 60 μmol/kg i.j., 60 min): 32% | inhibition of histamine-induced bronchospasm, Vmaxi ([4]; 60 μmol/kg i.j., 60 min): 39% | inhibition of histamine-induced bronchospasm, TVi ([4]; 60 μmol/kg i.v., 2 min): 78% | inhibition of histamine-induced bronchospasm, Vmaxe ([4]; 60 μmol/kg i.v., 2 min): 79% | inhibition of histamine-induced bronchospasm, Vmaxi ([4]; 60 μmol/kg i.v., 2 min): 95% | inhibition of histamine-induced bronchospasm, TVi ([4]; 60 μmol/kg i.v., 10 min): 27% | inhibition of histamine-induced bronchospasm, Vmaxe ([4]; 60 μmol/kg i.v., 10 min): 27% | inhibition of histamine-induced bronchospasm, Vmaxi ([4]; 60 μmol/kg i.v., 10 min): 38% | inhibition of histamine-induced bronchospasm, TVi ([4]; 60 μmol/kg i.v., 20 min): 16% | inhibition of histamine-induced bronchospasm, Vmaxe ([4]; 60 μmol/kg i.v., 20 min): 15% | inhibition of histamine-induced bronchospasm, Vmaxi ([4]; 60 μmol/kg i.v., 20 min): 19% | inhibition of histamine-induced bronchospasm, TVi ([4]; 60 μmol/kg i.v., 30 min): 16% | inhibition of histamine-induced bronchospasm, Vmaxe ([4]; 60 μmol/kg i.v., 30 min): 15% | inhibition of histamine-induced bronchospasm, Vmaxi ([4]; 60 μmol/kg i.v., 30 min): 18% | inhibition of histamine-induced bronchospasm, TVi ([4]; 60 μmol/kg i.v., 60 min): 3% | inhibition of histamine-induced bronchospasm, Vmaxe ([4]; 60 μmol/kg i.v., 60 min): 8% | inhibition of histamine-induced bronchospasm, Vmaxi ([4]; 60 μmol/kg i.v., 60 min): 7% | Doubling of the latency period ([5]; 30 min): 6 N of 10 animals | Tripling of the latency period ([5]; 30 min): 4 N of 10 animals | Doubling of the latency period ([5]; 45 min after administration): 3 N of 10 animals | Tripling of the latency period ([5]; 45 min after administration): 2 N of 10 animals | Emax ([6]; after 3000 nMol, read-out: Emax left-ventricular pressure): 16% | Emax ([6]; at Emax, 3000 nMol, read-out: Percentage increase in heart rate at Emax): 5% | EC20 left-ventricular pressure ([6]; dose which leads to a 20% increase in left ventricular pressure): is not reached | Percentage change in dP/dtmax ([7]; 10 μmol/kg i.v., 0-10 min (Maximum)): 59% | Percentage change in dP/dtmax ([7]; 10 μmol/kg i.v., 10 min): 12% | Percentage change in dP/dtmax ([7]; 10 μmol/kg i.v., 30 min): 20% | Percentage change in dP/dtmax ([7]; 30 μmol/kg i.v., 0-10 min (Maximum)): 92% | Percentage change in dP/dtmax ([7]; 30 μmol/kg i.v., 10 min): 53% | Percentage change in dP/dtmax ([7]; 30 μmol/kg i.v., 30 min): 67% | Percentage change in dP/dtmax ([7]; 100 μmol/kg i.v., 0-10 min (Maximum)): 147% | Percentage change in dP/dtmax ([7]; 100 μmol/kg i.v., 10 min): 135% | Percentage change in dP/dtmax ([7]; 100 μmol/kg i.v., 30 min): 112%

COc1cc(-c2ccc(=O)[nH]n2)ccc1OC(C)C [compound 1]
EC50 [1]: 1.91 µM | EC40 [2]: 22.4 µM | LD50 at 168 h [3]: 270 mg/kg

CCOc1cc(-c2ccc(=O)[nH]n2)ccc1OC [compound 8]
EC50 [1]: 0.339 µM | [EC40 pot.] left atrium / [EC50] trachea [1]: 3.9 | [EC50] theophylline / [EC50] substance [1]: 398 | [EC40 pot.] theophylline / [EC40 pot.] substance [2]: 316 | EC40 [2]: 1.32 µM | LD50 at 168 h [3]: 550 mg/kg

COc1ccc(-c2ccc(=O)[nH]n2)cc1OCCC(C)C [compound 12]
EC50 [1]: 0.501 µM | [EC40 pot.] left atrium / [EC50] trachea [1]: 2000 | [EC50] theophylline / [EC50] substance [1]: 269 | EC40 [2]: > 1000 µM | LD50 at 168 h [3]: 960 mg/kg
